Assay results: US20230041743A1, “1,8-NAPHTHYRIDIN-2-ONE COMPOUNDS FOR THE TREATMENT OF AUTOIMMUNE DISEASE” (Hoffmann-La Roche Inc., priority 2019, published 2023)
pIC50: −log10 of the molar value.

Key:
human TLR8 = molecular target: T1, human TLR8 (Homo sapiens, UniProt Q9NR97); assay: HEK293-Blue-hTLR-8 cells assay (SEAP reporter, R848 stimulation); type: cell-based; conditions: HEK293-Blue-hTLR8 cells, R848 ligand, 20 hrs incubation; read-out: HEK/hTLR8 IC50
T1 construct: host or cells: HEK293 (HEK-Blue hTLR8)
T1 sequence (Q9NR97 27-1041): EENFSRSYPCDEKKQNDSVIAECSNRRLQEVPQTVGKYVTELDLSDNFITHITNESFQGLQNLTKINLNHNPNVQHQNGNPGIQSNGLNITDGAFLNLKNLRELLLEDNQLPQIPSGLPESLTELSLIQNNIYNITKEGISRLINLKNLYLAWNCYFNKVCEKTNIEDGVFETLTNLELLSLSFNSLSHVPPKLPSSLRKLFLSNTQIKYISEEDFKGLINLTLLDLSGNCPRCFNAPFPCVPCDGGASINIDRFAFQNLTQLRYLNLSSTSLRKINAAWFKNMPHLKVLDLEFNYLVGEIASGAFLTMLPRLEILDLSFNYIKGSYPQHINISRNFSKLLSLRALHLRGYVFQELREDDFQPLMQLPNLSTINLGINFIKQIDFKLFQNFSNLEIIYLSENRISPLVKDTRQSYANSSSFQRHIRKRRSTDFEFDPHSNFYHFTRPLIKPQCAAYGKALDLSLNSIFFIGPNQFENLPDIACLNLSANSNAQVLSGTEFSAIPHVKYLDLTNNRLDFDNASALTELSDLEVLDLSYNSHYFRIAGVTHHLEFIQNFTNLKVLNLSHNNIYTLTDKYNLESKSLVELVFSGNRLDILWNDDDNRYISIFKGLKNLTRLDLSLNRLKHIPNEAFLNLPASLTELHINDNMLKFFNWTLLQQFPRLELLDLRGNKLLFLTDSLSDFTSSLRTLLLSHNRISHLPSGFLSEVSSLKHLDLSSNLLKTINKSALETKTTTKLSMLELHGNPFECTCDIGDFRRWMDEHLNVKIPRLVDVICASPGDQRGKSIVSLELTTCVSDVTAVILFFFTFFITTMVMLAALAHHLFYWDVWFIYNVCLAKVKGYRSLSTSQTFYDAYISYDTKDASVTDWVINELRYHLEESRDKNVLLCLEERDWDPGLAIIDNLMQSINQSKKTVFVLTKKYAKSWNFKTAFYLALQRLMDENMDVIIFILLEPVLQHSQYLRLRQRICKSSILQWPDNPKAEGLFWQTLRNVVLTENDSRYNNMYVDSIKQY
Source text: HEK293-Blue-hTLR-8 Cells Assay:
A stable HEK293-Blue-hTLR-8 cell line was purchased from InvivoGen (Cat. #: hkb-htlr8, San Diego, Calif., USA). These cells were originally designed for studying the stimulation of human TLR8 by monitoring the activation of NF-κB. A SEAP (secreted embryonic alkaline phosphatase) reporter gene was placed under the control of the IFN-β minimal promoter fused to five NF-κB and AP-1-binding sites. The SEAP was induced by activating NF-κB and AP-1 via stimulating HEK-Blue hTLR8 cells with TLR8 ligands. Therefore the reporter expression was declined by TLR8 antagonist under the stimulation of a ligand, such as R848, for incubation of 20 hrs. The cell culture supernatant SEAP reporter activity was determined using QUANTI-Blue™ kit (Cat. #: rep-qb1, Invivogen, San Diego, Ca, USA) at a wavelength of 640 nm, a detection medium that turns purple or blue in the presence of alkaline phosphatase.
HEK293-Blue-hTLR8 cells were incubated at a density of 250,000-450,000 cells/mL in a volume of 170 μL in a 96-well plate in Dulbecco's Modified Eagle's medium (DMEM) containing 4.5 g/L glucose, 50 U/mL penicillin, […], […], 2 mM L-glutamine, 10% (v/v) heat-inactivated fetal bovine serum with addition of 20 μL test compound in a serial dilution in the presence of final DMSO at 1% and 10 μL of 60 uM R848 in above DMEM, perform incubation under 37° C. in a CO2 incubator for 20 hrs. Then 20 μL of the supernatant from each well was incubated with 180 μL Quanti-blue substrate solution at 37° C. for 2 hrs and the absorbance was read at 620-655 nm using a spectrophotometer. The signaling pathway that TLR8 activation leads to downstream NF-κB activation has been widely accepted, and therefore similar reporter assay was modified for evaluating TLR8 antagonist.

[1] = Human microsomal stability assay; type: in vitro ADME; conditions: human liver microsomes, 1 μM test compound, 0.5 mg/mL protein, 37° C.; low <7.0, medium 7.0-16.2, high 16.2-23.2
Description: Human Microsomal Stability Assay
Human liver microsomes (Cat. NO.: 452117, Corning, USA) were preincubated with test compound for 10 minutes at 37° C. in 100 mM potassium phosphate buffer, pH 7.4. The reactions were initiated by adding NADPH regenerating system. The final incubation mixtures contained 1 μM test compound, 0.5 mg/mL liver microsomal protein, 1 mM MgCl2, 1 mM NADP, 1 unit/mL isocitric dehydrogenase and 6 mM isocitric acid in 100 mM potassium phosphate buffer, pH 7.4. After incubation times of 0, 3, 6, 9, 15 and 30 minutes at 37° C., 300 μL of cold ACN (including internal standard) was added to 100 μL incubation mixture to terminate the reaction. Following precipitation and centrifugation, 100 uL supernatant will be taken out and added 300 uL water.
The amount of compound remaining in the samples was determined by LC-MS/MS. Controls of no NADPH regenerating system at zero and 30 minutes were also prepared and analyzed. The results were categorized as: low (<7.0 mL/min/kg), medium (7.0-16.2 mL/min/kg) and high (16.2-23.2 mL/min/kg).

Row | SMILES | pIC50 (human TLR8) | CL (h) [1] [mL/min/kg]
1 | C[C@@H]1CN(c2cc(=O)n(C)c3ncccc23)C[C@@H]2c3ccc(N4CCNCC4)cc3CN12 [Example 12, 4-[(4R,10bS)-4-methyl-8-piperazin-1-yl-3,4,6,10b-tetrahydro-1H-pyrazino[2,1-a]isoindol-2-yl]-1-methyl-1,8-naphthyridin-2-one] | 9.10 | 6.2
2 | C[C@@H]1CN(c2cc(=O)n(C)c3ncccc23)C[C@@H]2c3ccc(N4CCN[C@@H](C)C4)cc3CN12 [Example 13, 4-[(4R,10bS)-4-methyl-8-[(3S)-3-methylpiperazin-1-yl]-3,4,6,10b-tetrahydro-1H-pyrazino[2,1-a]isoindol-2-yl]-1-methyl-1,8-naphthyridin-2-one] | 8.89 | 7.9
3 | C[C@@H]1CN(c2cc(=O)n(C)c3ncccc23)C[C@@H]2c3ccc(N4CCC[C@](C)(N)C4)cc3CN12 [Example 15, 4-[(4R,10bS)-8-[(3S)-3-amino-3-methyl-1-piperidyl]-4-methyl-3,4,6,10b-tetrahydro-1H-pyrazino[2,1-a]isoindol-2-yl]-1-methyl-1,8-naphthyridin-2-one] | 8.14 | 8.0
4 | C[C@@H]1CN(c2cc(=O)n(C)c3ncccc23)C[C@@H]2c3ccc(N4CCC[C@@H](N)C4)cc3CN12 [Example 16, 4-[(4R,10bS)-8-[(3R)-3-amino-1-piperidyl]-4-methyl-3,4,6,10b-tetrahydro-1H-pyrazino[2,1-a]isoindol-2-yl]-1-methyl-1,8-naphthyridin-2-one] | 8.41 | 8.5
5 | C[C@@H]1CN(c2cc(=O)n(C)c3ncccc23)C[C@@H]2c3ccc(N4CCC(C)(N)CC4)cc3CN12 [Example 18, 4-[(4R,10bS)-8-(4-amino-4-methyl-1-piperidyl)-4-methyl-3,4,6,10b-tetrahydro-1H-pyrazino[2,1-a]isoindol-2-yl]-1-methyl-1,8-naphthyridin-2-one] | 8.60 | 6.2
6 | C[C@@H]1CN(c2cc(=O)n(C)c3ncccc23)C[C@@H]2c3ccc(N4C[C@@H]5C[C@H]4CN5)cc3CN12 [Example 19, 4-[(4R,10bS)-8-[(1S,4S)-2,5-diazabicyclo[2.2.1]heptan-2-yl]-4-methyl-3,4,6,10b-tetrahydro-1H-pyrazino[2,1-a]isoindol-2-yl]-1-methyl-1,8-naphthyridin-2-one] | 7.95 | 6.2
7 | C[C@@H]1CN(c2cc(=O)n(C)c3ncccc23)C[C@@H]2c3ccc(N4C[C@H]5C[C@@H]4CN5)cc3CN12 [Example 20, 4-[(4R,10bS)-8-[(1R,4R)-2,5-diazabicyclo[2.2.1]heptan-2-yl]-4-methyl-3,4,6,10b-tetrahydro-1H-pyrazino[2,1-a]isoindol-2-yl]-1-methyl-1,8-naphthyridin-2-one] | 8.35 | 6.2
8 | C[C@@H]1CN(c2cc(=O)n(C)c3ncccc23)C[C@@H]2c3ccc(N4CC5CCC(C4)N5)cc3CN12 [Example 21, 4-[(4R,10bS)-8-(3,8-diazabicyclo[3.2.1]octan-3-yl)-4-methyl-3,4,6,10b-tetrahydro-1H-pyrazino[2,1-a]isoindol-2-yl]-1-methyl-1,8-naphthyridin-2-one] | 8.74 | 6.4
9 | C[C@@H]1CN(c2cc(=O)n(C)c3ncccc23)C[C@@H]2c3ccc(OCCN(C)C)cc3CN12 [Example 23, 4-[(4R,10bS)-8-[2-(dimethylamino)ethoxy]-4-methyl-3,4,6,10b-tetrahydro-1H-pyrazino[2,1-a]isoindol-2-yl]-1-methyl-1,8-naphthyridin-2-one] | 9.00 | 6.2
10 | C[C@@H]1CN(c2cc(=O)n(C)c3ncccc23)C[C@@H]2c3ccc(C4CCNCC4)cc3CN12 [Example 24, 4-[(4R,10bS)-4-methyl-8-(4-piperidyl)-3,4,6,10b-tetrahydro-1H-pyrazino[2,1-a]isoindol-2-yl]-1-methyl-1,8-naphthyridin-2-one] | 8.85 | 6.2
